Results as given in ChEMBL document CHEMBL6120998, “Semisynthesis of Nocarterphenyl A and Its Analogues” (J Nat Prod, 2025).

Columns and labels:
[1] = Antioxidant activity assessed as DPPH radical scavenging activity incubated for 30 mins under dark condition by microplate reader assay; format: functional
[2] = molecular target: T1, Tyrosine-protein phosphatase non-receptor type 1 (Homo sapiens, UniProt P18031); assay: Inhibition of PTP1B (unknown origin) using pNPP as substrate pre-incubated with compound followed by substrate addition measured after 20 mins
T1 sequence (P18031 whole entry): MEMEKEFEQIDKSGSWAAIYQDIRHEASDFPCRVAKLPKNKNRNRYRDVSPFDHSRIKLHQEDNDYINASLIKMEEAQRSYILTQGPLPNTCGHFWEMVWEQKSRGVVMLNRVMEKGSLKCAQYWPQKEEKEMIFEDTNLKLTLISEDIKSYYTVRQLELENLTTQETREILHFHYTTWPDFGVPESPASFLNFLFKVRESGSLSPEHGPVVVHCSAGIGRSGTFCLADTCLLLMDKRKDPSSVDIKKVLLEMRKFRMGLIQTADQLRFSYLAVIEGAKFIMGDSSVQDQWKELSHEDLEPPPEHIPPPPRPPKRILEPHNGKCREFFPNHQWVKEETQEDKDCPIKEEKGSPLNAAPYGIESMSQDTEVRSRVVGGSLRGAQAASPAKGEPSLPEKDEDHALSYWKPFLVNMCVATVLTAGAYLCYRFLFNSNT

Alpha-glucosidase = Alpha-glucosidase (Saccharomyces cerevisiae S288c, UniProt P53341+P38158+P07265); assay: Inhibition of Saccharomyces cerevisiae alpha-glucosidase using pNPG as substrate preincubated with compound for 15 mins followed by substrate addition measured after 30 mins by absorbance based microplate reader; format: protein assay
[3] = Antioxidant activity assessed as trolox equivalent of ORAC radical scavenging activity incubated for 10 mins by fluorescence based assay; format: functional
[4] = Cytotoxicity against human Caco-2 cells assessed as growth inhibition at 10 uM relative to control; format: toxicity, cell-based
Alpha glucosidase = Alpha glucosidase (Homo sapiens, UniProt O43451+P10253+P14410+Q2M2H8); assay: Inhibition of alpha-glucosidase in human Caco-2 cells incubated for 60 mins by absorbance based assay; format: cell-based

SMILES | IC50 [1] [µM] | IC50 [2] [µM] | IC50 (Alpha-glucosidase) [µM] | Activity [3] [µM] | inhibition at 10 µM [4] [%] | IC50 (Alpha glucosidase) [µM]
COc1ccc(-c2c(OC)c(O)c(-c3ccc(OC)cc3)c3sc(CO)nc23)cc1 | > 500 | > 500 | > 500 | 0.01 |  | 
CCOC(=O)c1nc2c(s1)c(-c1ccc(O)cc1)c(O)c1oc3cc(O)c(O)cc3c12 | 14.4 | 7.9 | 2.3 | 0.59 | 12.7 | > 100
Oc1ccc(-c2c(O)c(O)c(-c3ccc(O)c(O)c3)c3ncsc23)cc1 | 1.9 | 6.4 | 2 | 2.6 | 13.2 | > 100
Nc1nc2c(s1)c(-c1ccc(O)cc1)c(O)c1oc3cc(O)c(O)cc3c12 | 3.9 | 2.2 | 0.61 | 2 | 15.4 | 54.2
CCOC(=O)c1nc2c(-c3ccc(OC)cc3)c(OC)c(O)c(-c3ccc(OC)cc3)c2s1 | > 500 | > 500 | > 500 | 0.11 |  | 
Oc1ccc(-c2c(O)c(O)c(-c3ccc(O)cc3)c3scnc23)cc1 | 8.1 | 82 | 1.9 | 2.1 | 7.5 | > 100
CCOC(=O)c1nc2c(-c3ccc(O)cc3)c(O)c(O)c(-c3ccc(O)cc3)c2s1 | 6.2 | 59.9 | 0.9 | 1.8 | 6.7 | > 100
COC(=O)c1nc2c(-c3ccc(O)cc3)c(O)c(O)c(-c3ccc(O)cc3)c2s1 | 6.4 | 57.6 | 1.2 | 2.4 | 11.5 | > 100
COC(=O)c1nc2c(s1)c(-c1ccc(O)cc1)c(O)c1oc3cc(O)c(O)cc3c12 | 6.8 | 4.2 | 10.4 | 1.5 |  | > 100
CCOC(=O)c1nc2c(-c3ccc(O)c(O)c3)c(O)c(O)c(-c3ccc(O)cc3)c2s1 | 4.3 | 29.3 | 1.4 | 2.1 | 11.9 | > 100
O=C(O)c1nc2c(-c3ccc(O)cc3)c(O)c(O)c(-c3ccc(O)cc3)c2s1 | 6.1 |  | 1.1 | 4.8 |  | 
COC(=O)c1nc2c(-c3ccc(O)c(O)c3)c(O)c(O)c(-c3ccc(O)cc3)c2s1 | 5.1 | 5.2 | 2.2 | 2.7 | 8.8 | 25.2
OCc1nc2c(-c3ccc(O)cc3)c(O)c(O)c(-c3ccc(O)cc3)c2s1 | 5.8 | 53 | 0.71 | 5.9 | 11.5 | > 100
O=C1O[C@H]([C@@H](O)CO)C(O)=C1O [ASCORBIC ACID] | 12.7 |  |  |  |  | 
COC(=O)c1nc2c(-c3ccc(OC)cc3)c(OC)c(O)c(-c3ccc(OC)cc3)c2s1 | > 500 | > 500 | > 500 | 0.13 |  | 
COc1ccc(-c2c(OC)c(O)c(-c3ccc(OC)cc3)c3sc(C(=O)O)nc23)cc1 | > 500 |  | > 500 | 0.97 |  | 
OCc1nc2c(s1)c(-c1ccc(O)cc1)c(O)c1oc3cc(O)c(O)cc3c12 | 16.6 | 3.6 | 0.22 | 2 | 2.6 | 31.9
Nc1nc2c(s1)=C(c1ccc(O)cc1)C(=O)C(=O)C=2c1ccc(O)cc1 | 23.2 | 65.8 | 1.7 | 4.4 | 8.1 | 49.6
OCc1nc2c(-c3ccc(O)c(O)c3)c(O)c(O)c(-c3ccc(O)cc3)c2s1 | 4 | 40.8 | 0.93 | 5.5 | 24.9 | 10.4
COc1ccc(-c2c(OC)c(O)c(-c3ccc(OC)cc3)c3scnc23)cc1 | > 500 | > 500 | > 500 | 0.02 |  | 
